Molecules are shown by their SMILES.

The target in the first experiment is T1, GHSR1a receptor (Homo sapiens, UniProt Q92847).
T1 construct: expressed in transfected cells; host or cells: HEK293 (membranes)
T1 sequence (Q92847 whole entry): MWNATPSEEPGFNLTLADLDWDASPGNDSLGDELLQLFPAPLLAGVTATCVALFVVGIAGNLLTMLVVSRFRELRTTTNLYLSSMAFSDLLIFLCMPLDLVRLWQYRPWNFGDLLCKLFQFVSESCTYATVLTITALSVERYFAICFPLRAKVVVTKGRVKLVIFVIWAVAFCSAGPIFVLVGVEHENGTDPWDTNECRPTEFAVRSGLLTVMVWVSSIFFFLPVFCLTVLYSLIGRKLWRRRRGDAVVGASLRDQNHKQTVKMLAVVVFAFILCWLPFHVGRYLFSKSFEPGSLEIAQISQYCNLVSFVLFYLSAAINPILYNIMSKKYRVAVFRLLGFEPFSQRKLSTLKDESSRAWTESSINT
The experiment can be described thus: 125I-Ghrelin binding assay. To be noted: displacement of 125I-ghrelin (0.053 nM), membranes of HEK293 cells transfected with GHSR1a; Cheng-Prussoff; '—' not defined; read-out: Binding pKi (converted). A general note: In a radioligand displacement assay an active substance lowers the binding of a labelled ligand.
With `COc1cccc2c(C(=O)c3ccccc3)cn(CCCNCCOc3ccccc3)c12`, the Ki is 158 nM.
Still for that read-out and setting: the same measure for `CC(=O)c1cn(CCCN2C3CCC2CC(Oc2ccccc2Cl)C3)c2ncccc12` (stereo not drawn): 31.6 nM.
As to `COc1cccc2c(C(=O)c3ccccc3)cn(CCCN3CCC(Oc4ccc(F)cc4)CC3)c12`, the Ki is 1260 nM.
On to `COc1ccccc1C1CCN(CCCn2cc(C(=O)NCC(C)C)c3cccc(OC)c32)CC1`, for which the Ki was 126 nM.
With `COc1cccc2c(C(C)=O)cn(CCCN3CCN(c4ccccc4Cl)CC3)c12`, the Ki is 2510 nM.
The same measure, in the same setting: the same measure for `COc1cccc2c(C(C)=O)cn(CCCN3CCN(c4ccc(C(F)(F)F)cc4)CC3)c12`: 251 nM; for `COc1cccc2c(C(=O)Cc3ccccc3)cn(CCCN3CCCC(Cc4ccccc4Cl)C3)c12` (stereo not drawn): 126 nM.
As for `Cc1cccc(CNC(=O)n2cc(CCCN3C4CCC3CC(CCc3ccccc3)C4)c3ccccc32)c1` (stereo not drawn), the Ki was 158 nM.
Still for that read-out and setting: to `O=C(c1cn(CCCN2C3CCC2CC(CCc2ccccc2)C3)c2ncccc12)C(F)(F)F` (stereo not drawn) belongs 200 nM; to `COc1cccc2c(C(C)=O)cn(CCCN3CCC(Cc4ccccc4)CC3)c12`, 794 nM; to `O=C(c1cn(CCCN2CCCN(Cc3ccccc3Cl)CC2)c2ncccc12)C(F)(F)F`, 50.1 nM.
Same read-out and setting: to `COc1ccccc1C1CCN(CCCn2cc(C(C)=O)c3cccc(OC)c32)CC1` belongs 631 nM; to `CC(=O)c1cn(CCCN2CCC(Oc3ccc(F)cc3)CC2)c2c(Cl)cccc12`, 2000 nM.
Same read-out and setting: the same measure for `COc1cccc2c(C(C)=O)cn(CCCN3CCC(C(=O)c4ccccc4)CC3)c12`: 2000 nM.
As to `COc1cccc2c(C(C)=O)cn(CCCN3CCN(c4ccc(C(F)(F)F)cc4[N+](=O)[O-])CC3)c12`, the Ki was 631 nM.
As to `COc1cccc2c(C#N)cn(CCCN3C4CCC3CC(CCc3ccc(Cl)cc3)C4)c12` (stereo not drawn), the Ki is 251 nM.
As for `CC(=O)c1cn(CCCN2CCC(Oc3ccc(Cl)cc3)CC2)c2c(C)cccc12`, the Ki was 2000 nM.
Still for that read-out and setting: to `COc1cccc2c(C(C)=O)cn(CC(C)CN3CCC(Oc4cccc(Cl)c4)CC3)c12` (stereo not drawn) belongs 794 nM.
On to `COc1ccccc1C1CCN(CCCn2cc(C(C)=O)c3cccc(C)c32)CC1`, for which the Ki is 1260 nM.
On the same count and under the same terms, the same measure for `CC(=O)c1cn(CCCN2C3CCC2CC(Oc2ccc(F)cc2)C3)c2c(C#N)cccc12` (stereo not drawn): 100 nM; for `COc1cccc2c(C(=O)NCc3cccc(Cl)c3)cn(CCCN3C4CCC3CC(Oc3ccc(Cl)cc3)C4)c12` (stereo not drawn): 251 nM.
On the same count and under the same terms, the same measure for `COc1ccc(C(=O)OC2C[C@H]3CC[C@@H](C2)N3CCCn2cc(C(C)=O)c3cccc(OC)c32)cc1OC` (stereo partly drawn): 1000 nM; for `COc1ccccc1C1CCN(CCCn2cc(C(C)=O)c3cccc(Br)c32)CC1`: 316 nM; for `CC(=O)c1cn(CCCN2C3CCC2CC(Oc2ccc(Cl)cc2)C3)c2c(Cl)cccc12` (stereo not drawn): 1000 nM.
Still for that read-out and setting: to `CC(=O)c1cn(CCCN2C3CCC2CC(CCc2ccc(Cl)cc2)C3)c2ncccc12` (stereo not drawn) belongs 398 nM.

In the next experiment the target is Ghrelin receptor (Homo sapiens, UniProt Q92847). The experiment can be described thus: Receptor Selection and Amplification Technology (R-SAT) assay. The experiment is classed as cell-based. Set-up: expressed in transfected cells; host or cells: NIH3T3. To be noted: […]; '—' not defined (nd used separately); read-out: RSAT pIC50 (converted).
Ghrelin receptor, sequence (Q92847 whole entry): as above
Take `COc1cccc2c(C(=O)c3ccccc3)cn(CCCNCCOc3ccccc3)c12`: the IC50 was 20 nM.
Same read-out and setting: to `COc1cccc2c(C(=O)c3ccccc3)cn(CCCN3CCC(Oc4ccc(F)cc4)CC3)c12` belongs 25.1 nM.
On the same count and under the same terms, to `COc1cccc2c(C(=O)Cc3ccccc3)cn(CCCN3CCCC(Cc4ccccc4Cl)C3)c12` (stereo not drawn) belongs 25.1 nM.

Still in this experiment, the particulars now being: negative logarithm of ligand concentration causing 50% inhibition of constitutive receptor response; transfected NIH3T3 cells; '—' not defined (nd used separately); read-out: RSAT pIC50 (converted).
For the compound `CC(=O)c1cn(CCCN2C3CCC2CC(Oc2ccccc2Cl)C3)c2ncccc12` (stereo not drawn), the IC50 is 20 nM.
Same read-out and setting: the same measure for `COc1ccccc1C1CCN(CCCn2cc(C(=O)NCC(C)C)c3cccc(OC)c32)CC1`: 25.1 nM.
Same read-out and setting: the same measure for `COc1cccc2c(C(C)=O)cn(CCCN3CCN(c4ccccc4Cl)CC3)c12`: 25.1 nM; for `COc1cccc2c(C(C)=O)cn(CCCN3CCN(c4ccc(C(F)(F)F)cc4)CC3)c12`: 25.1 nM.
Still for that read-out and setting: to `Cc1cccc(CNC(=O)n2cc(CCCN3C4CCC3CC(CCc3ccccc3)C4)c3ccccc32)c1` (stereo not drawn) belongs 31.6 nM.
Consider `O=C(c1cn(CCCN2C3CCC2CC(CCc2ccccc2)C3)c2ncccc12)C(F)(F)F` (stereo not drawn), for which the IC50 is 31.6 nM.
On the same count and under the same terms, the same measure for `COc1cccc2c(C(C)=O)cn(CCCN3CCC(Cc4ccccc4)CC3)c12`: 31.6 nM; for `O=C(c1cn(CCCN2CCCN(Cc3ccccc3Cl)CC2)c2ncccc12)C(F)(F)F`: 31.6 nM; for `COc1ccccc1C1CCN(CCCn2cc(C(C)=O)c3cccc(OC)c32)CC1`: 39.8 nM.
Consider `CC(=O)c1cn(CCCN2CCC(Oc3ccc(F)cc3)CC2)c2c(Cl)cccc12`, for which the IC50 was 39.8 nM.
Same read-out and setting: the same measure for `COc1cccc2c(C(C)=O)cn(CCCN3CCC(C(=O)c4ccccc4)CC3)c12`: 39.8 nM; for `COc1cccc2c(C(C)=O)cn(CCCN3CCN(c4ccc(C(F)(F)F)cc4[N+](=O)[O-])CC3)c12`: 39.8 nM; for `COc1cccc2c(C#N)cn(CCCN3C4CCC3CC(CCc3ccc(Cl)cc3)C4)c12` (stereo not drawn): 39.8 nM.
Same read-out and setting: to `CC(=O)c1cn(CCCN2CCC(Oc3ccc(Cl)cc3)CC2)c2c(C)cccc12` belongs 39.8 nM; to `COc1cccc2c(C(C)=O)cn(CC(C)CN3CCC(Oc4cccc(Cl)c4)CC3)c12` (stereo not drawn), 39.8 nM; to `COc1ccccc1C1CCN(CCCn2cc(C(C)=O)c3cccc(C)c32)CC1`, 39.8 nM.
Same read-out and setting: to `CC(=O)c1cn(CCCN2C3CCC2CC(Oc2ccc(F)cc2)C3)c2c(C#N)cccc12` (stereo not drawn) belongs 50.1 nM; to `COc1cccc2c(C(=O)NCc3cccc(Cl)c3)cn(CCCN3C4CCC3CC(Oc3ccc(Cl)cc3)C4)c12` (stereo not drawn), 50.1 nM.
Regarding `COc1ccc(C(=O)OC2C[C@H]3CC[C@@H](C2)N3CCCn2cc(C(C)=O)c3cccc(OC)c32)cc1OC` (stereo partly drawn), the IC50 was 50.1 nM.
On to `COc1ccccc1C1CCN(CCCn2cc(C(C)=O)c3cccc(Br)c32)CC1`, for which the IC50 is 50.1 nM.
On the same count and under the same terms, to `CC(=O)c1cn(CCCN2C3CCC2CC(Oc2ccc(Cl)cc2)C3)c2c(Cl)cccc12` (stereo not drawn) belongs 50.1 nM.
Regarding `CC(=O)c1cn(CCCN2C3CCC2CC(CCc2ccc(Cl)cc2)C3)c2ncccc12` (stereo not drawn), the IC50 was 79.4 nM.

Still in this experiment, the particulars now being: percent inhibition at saturating ligand, normalized to reference ligand Substance P analog = 100%.
`COc1ccccc1C1CCN(CCCn2cc(C(C)=O)c3cccc(OC)c32)CC1`: the “RSAT Eff(%)” value was determined as 109%.
Still for that read-out and setting: the same measure for `COc1cccc2c(C(C)=O)cn(CCCN3CCC(C(=O)c4ccccc4)CC3)c12`: 98%; for `COc1cccc2c(C(=O)NCc3cccc(Cl)c3)cn(CCCN3C4CCC3CC(Oc3ccc(Cl)cc3)C4)c12` (stereo not drawn): 97%.

The same experiment, now with this note: percent inhibition at saturating ligand, normalized to reference ligand Substance P analog = 100%; read-out: RSAT Eff(%).
In the case of `CC(=O)c1cn(CCCN2C3CCC2CC(Oc2ccccc2Cl)C3)c2ncccc12` (stereo not drawn), the Emax stood at 108%.
Same read-out and setting: to `COc1cccc2c(C(C)=O)cn(CCCN3CCN(c4ccccc4Cl)CC3)c12` belongs 108%; to `COc1cccc2c(C(C)=O)cn(CCCN3CCN(c4ccc(C(F)(F)F)cc4)CC3)c12`, 92%.
The same measure, in the same setting: to `Cc1cccc(CNC(=O)n2cc(CCCN3C4CCC3CC(CCc3ccccc3)C4)c3ccccc32)c1` (stereo not drawn) belongs 114%.
The same measure, in the same setting: to `O=C(c1cn(CCCN2C3CCC2CC(CCc2ccccc2)C3)c2ncccc12)C(F)(F)F` (stereo not drawn) belongs 104%; to `COc1cccc2c(C(C)=O)cn(CCCN3CCC(Cc4ccccc4)CC3)c12`, 116%; to `O=C(c1cn(CCCN2CCCN(Cc3ccccc3Cl)CC2)c2ncccc12)C(F)(F)F`, 85%.
In the case of `CC(=O)c1cn(CCCN2CCC(Oc3ccc(F)cc3)CC2)c2c(Cl)cccc12`, the Emax amounted to 120%.
Still for that read-out and setting: to `COc1cccc2c(C(C)=O)cn(CCCN3CCN(c4ccc(C(F)(F)F)cc4[N+](=O)[O-])CC3)c12` belongs 94%; to `COc1cccc2c(C#N)cn(CCCN3C4CCC3CC(CCc3ccc(Cl)cc3)C4)c12` (stereo not drawn), 77%; to `CC(=O)c1cn(CCCN2CCC(Oc3ccc(Cl)cc3)CC2)c2c(C)cccc12`, 101%.
On to `COc1cccc2c(C(C)=O)cn(CC(C)CN3CCC(Oc4cccc(Cl)c4)CC3)c12` (stereo not drawn), for which the Emax was determined as 102%.
Same read-out and setting: to `COc1ccccc1C1CCN(CCCn2cc(C(C)=O)c3cccc(C)c32)CC1` belongs 116%.
Still for that read-out and setting: to `CC(=O)c1cn(CCCN2C3CCC2CC(Oc2ccc(F)cc2)C3)c2c(C#N)cccc12` (stereo not drawn) belongs 93%.
`COc1ccccc1C1CCN(CCCn2cc(C(C)=O)c3cccc(Br)c32)CC1`: the Emax was determined as 109%.
On the same count and under the same terms, the same measure for `CC(=O)c1cn(CCCN2C3CCC2CC(Oc2ccc(Cl)cc2)C3)c2c(Cl)cccc12` (stereo not drawn): 104%; for `CC(=O)c1cn(CCCN2C3CCC2CC(CCc2ccc(Cl)cc2)C3)c2ncccc12` (stereo not drawn): 87%.

Still in this experiment, the particulars now being: read-out: RSAT Eff(%).
`COc1cccc2c(C(=O)c3ccccc3)cn(CCCNCCOc3ccccc3)c12`: the Emax was found to be 74%.
On the same count and under the same terms, to `COc1cccc2c(C(=O)c3ccccc3)cn(CCCN3CCC(Oc4ccc(F)cc4)CC3)c12` belongs 107%; to `COc1ccccc1C1CCN(CCCn2cc(C(=O)NCC(C)C)c3cccc(OC)c32)CC1`, 108%; to `COc1cccc2c(C(=O)Cc3ccccc3)cn(CCCN3CCCC(Cc4ccccc4Cl)C3)c12` (stereo not drawn), 116%.
The same measure, in the same setting: the same measure for `COc1ccc(C(=O)OC2C[C@H]3CC[C@@H](C2)N3CCCn2cc(C(C)=O)c3cccc(OC)c32)cc1OC` (stereo partly drawn): 104%.

The values above are taken from patent publication US20070213359A1 (ACADIA Pharmaceuticals Inc., priority 2005, published 2007).
